From article PMC3289519 (Bioorganic & medicinal chemistry letters, 2012)
pEC50, pIC50: −log10 of the molar value.

Tests used:
[1] = tested on: Toxo/CpIMPDH, strain that depends on CpIMPDH; format: cell-based, Toxoplasma gondii; details: in words
[2] = tested on: C. parvum; details: anticryptosporidial activity, literature values; cited from earlier work
[3] = tested on: human IMPDH1; details: human IMPDH1, no detectable activity; cited from earlier work
[4] = tested on: human IMPDH2; details: human IMPDH2, no detectable activity; cited from earlier work

Row | Compound | activity against T. gondii/CpIMPDH [1] | also measured
1 | O=C(Cn1c(-c2cscn2)nc2ccccc21)Nc1ccc2ccccc2c1 [Compound C90] | sub-micromolar | 
2 | O=C(Cn1c(-c2nccs2)nc2ccccc21)Nc1ccc2ccccc2c1 [Compound C97] | sub-micromolar | 
3 | O=C(Cn1c(-c2nccs2)nc2ccccc21)Nc1ccc(Br)cc1 [Compound C64] | sub-micromolar | 
4 | NC[C@@H]1O[C@H](O[C@H]2[C@@H](O)[C@H](O[C@@H]3[C@@H](O)[C@H](N)C[C@H](N)[C@H]3O[C@H]3O[C@H](CO)[C@@H](O)[C@H](O)[C@H]3N)O[C@@H]2CO)[C@H](N)[C@@H](O)[C@@H]1O [paromomycin] |  | pEC50 [2]: 3.89 to 4.19
5 | O=C(Cn1c(-c2nccs2)nc2ccccc21)Nc1ccc(Cl)c(Cl)c1 [Compound C84] | sub-micromolar | 
6 | O=C(Cn1c(-c2ccccn2)nc2ccccc21)Nc1ccc2ccccc2c1 [Compound C91] | sub-micromolar | 
7 | COc1ccc(NC(=O)Cn2c(-c3cscn3)nc3ccccc32)cc1 [C] |  | pIC50 [3]: < 4.30; pIC50 [4]: < 4.30
